Test results reported in patent US20170166558A1, “O-GLCNAC TRANSFERASE (OGT) INHIBITORS AND USES THEREOF” (President and Fellows of Harvard College, priority 2014, published 2017).

How the values were obtained:
OGT in CHO cells = assay: Markers of OGT inhibition in CHO cells (Nup62 mass shift, OGA levels, H2B-S112 O-GlcNAc); assay type: cell-based, Chinese hamster
Experimental: In vivo inhibition of glycosylation: For all immunoblotting experiments, CHO-K1 (CHO) cells were grown in F12-K media supplemented with 10% FBS and antibiotics at 37° C. in a 5% CO2 incubator. Cells were treated by adding indicated inhibitor in DMSO vehicle (0.5% final vehicle concentration) upon reaching 70% confluence. After indicated treatment length, cells were harvested by aspirating growth media and washing with ice cold 1× PBS. Cells were subsequently lysed in boiling 1% SDS/20 mM HEPES 7.9. After cooling to room temperature, 1 mM PMSF, 10 μM PUGNAC, 10 μM TMG and 1× Complete protease inhibitor cocktail were added to the solution. The mixture was sonicated and then subjected to a 5 minute incubation at 95° C. The samples were centrifuged for 15 minutes at 20,000×g and the supernatant was collected and the total protein was measured by BCA assay (BIO-RAD).
(§1) The sample was separated by SDS-PAGE (Bio-Rad 4-15%, Cat: 345-0028), transferred to a nitrocellulose membrane (iBlot, Invitrogen) and probed with the indicated antibody. Tyipcally, membranes were blocked with 4% BSA in 1× TBS+0.04% tween-20 for 1 hour before incubating with antibody (typically diluted 1:1000 in 4% BSA inlx TBS+0.04% tween-20) overnight at 4° C. Membranes were then washed three times with 1× TBS+0.04% tween-20 and incubated with secondary antibody (typically diluted 1:5000 in 4% BSA in 1× TBS+0.04% tween-20) for 1 hour at room temperature. Lastly, membranes were washed 3× with 1× TBS+0.04% tween-20 and imaged with ECL. D283-Med cells were treated as above but grown in F12-K media supplemented with 10% FBS and antibiotics. HEK, HeLa and LNCaP cells were treated as above but grown in RPMI media supplemented with 10% FBS and antibiotics.

[1] = tested on: cell surface glycans of CHO cells; assay: Lectin blots of cell surface glycans of CHO cells; assay type: cell-based, Chinese hamster; conditions: 50 μM, 24 hours
Experimental: Lectin blots were performed with the CHO-K1 cell lysate as prepared above. […] The biotin label on the lectins was visualized with incubation with Streptavidin-HRP (Pierce) followed by ECL detection and imaging.

CHO cells = assay: ApoTox-Glo cell viability, cytotoxicity and apoptosis signaling assay; assay type: cell-based, Chinese hamster
Experimental: (§2) Cell viability, cytotoxicity and apoptosis signaling assays were performed in a 96-well plate using ApoTox-Glo reagent (Promega) according to the manufacturer's instructions.

LNCaP cells = assay: LNCaP cell viability and c-Myc stability; assay type: cell-based, human; conditions: 50 μM
Experimental: as §1, §2

[2] = target: T1, full length human OGT (ncOGT) (Homo sapiens, UniProt O15294); assay: UDP-Glo luminescence-based coupled enzyme assay; assay type: biochemical
T1 construct: made in house
T1 sequence (O15294 1-1046): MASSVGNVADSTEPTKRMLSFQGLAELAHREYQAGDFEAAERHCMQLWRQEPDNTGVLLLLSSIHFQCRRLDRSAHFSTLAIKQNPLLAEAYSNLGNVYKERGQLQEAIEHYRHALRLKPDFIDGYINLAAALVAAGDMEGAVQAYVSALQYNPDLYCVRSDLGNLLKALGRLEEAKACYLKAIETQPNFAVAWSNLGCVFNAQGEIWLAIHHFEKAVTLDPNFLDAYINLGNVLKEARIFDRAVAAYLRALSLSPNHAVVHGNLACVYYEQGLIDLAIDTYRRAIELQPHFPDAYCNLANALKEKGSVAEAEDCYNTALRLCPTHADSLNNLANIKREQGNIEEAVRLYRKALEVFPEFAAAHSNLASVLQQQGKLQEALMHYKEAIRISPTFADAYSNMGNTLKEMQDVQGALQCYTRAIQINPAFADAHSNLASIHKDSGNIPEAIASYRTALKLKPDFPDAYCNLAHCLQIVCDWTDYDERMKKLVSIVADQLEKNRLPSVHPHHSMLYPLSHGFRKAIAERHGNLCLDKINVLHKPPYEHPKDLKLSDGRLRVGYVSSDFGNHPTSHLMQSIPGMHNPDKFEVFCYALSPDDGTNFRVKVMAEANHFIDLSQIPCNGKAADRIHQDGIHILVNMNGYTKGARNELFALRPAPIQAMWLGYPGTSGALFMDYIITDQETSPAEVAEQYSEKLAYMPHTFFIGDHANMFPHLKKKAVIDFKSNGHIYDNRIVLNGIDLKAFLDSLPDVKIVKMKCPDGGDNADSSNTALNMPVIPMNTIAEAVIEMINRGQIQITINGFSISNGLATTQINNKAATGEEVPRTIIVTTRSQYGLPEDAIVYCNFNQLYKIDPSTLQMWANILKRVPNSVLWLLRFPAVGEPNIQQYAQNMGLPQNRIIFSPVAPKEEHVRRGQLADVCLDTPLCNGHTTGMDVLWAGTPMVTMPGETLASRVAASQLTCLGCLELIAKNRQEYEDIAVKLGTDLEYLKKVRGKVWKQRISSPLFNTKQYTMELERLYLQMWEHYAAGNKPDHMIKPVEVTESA
Experimental: UDP-Glo assay: Materials for this assay were obtained from Promega (catalog #V6961), and the experiment was performed largely as outlined by the manufacturer. IC50 values were determined in the range of 0 to 100 μM (eleven concentration points). Assays were performed either in white, 96-well or ½-volume 96-well, plates. This assay was run with 125 μM CKII3K peptide acceptor. Reaction volumes were between 14 (half volume plates) and 20 (normal volume plates) μL. Reactions contained the following components: 300 nM ncOGT, 125 μM CKII3K and 40 μM UDP-GlcNAc in 1× PBS pH 7.4 supplemented with 1 mM THP. Reactions were incubated for one hour at 25° C. and quenched by the addition of an equal volume of UDP-Glo nucleotide detection reagent, prepared and used according to manufacturer guidelines. The quenched reactions were then mixed briefly by shaking at 1800 rpm in a Thermomixer C, and incubated for one hour at room temperature prior to reading luminescence, as per the manufacturers guidelines. Data were analyzed by Microsoft Excel and Prism 6 (Graphpad). When evaluating the effect of sugar donor concentration, this parameter was varied, while all other conditions remained as described above. Each sample in this case was run in duplicate, unless otherwise specified. The 40 μM curve in FIG. 16C has each point in quadruplicate. Similarly, there is an n=9 for each point in the OSMI-1 curve in FIG. 16B.

Aqueous solubility = assay type: physicochemical

With `COc1ccccc1[C@@H](NS(=O)(=O)c1ccc2[nH]c(=O)ccc2c1)C(=O)N(Cc1ccco1)Cc1cccs1` [OSMI-1, (R)—N-(furan-2-ylmethyl)-2-(2-methoxyphenyl)-2-(2-oxo-1,2-dihydroquinoline-6-sulfonamido)-N-(thiophen-2-ylmethyl)acetamide] as the compound, how does the “Cellular OGA levels” value (OGT in CHO cells) read?
Its value is “reduced cellular OGA”.

And the Nup62 mass shift (OGT in CHO cells)?
Its Nup62 mass shift is “shift to a lower molecular weight”.

And the “O-GlcNAc modification of histone H2B-S112” value (OGT in CHO cells)?
Its value is “greatly reduced”.

And the “Changes in bands detected by ConA, PHA-L, ECL, GSL-I, PNA or DBA” value [1]?
Its value is “minimal changes”.

And the Cytotoxicity (CHO cells; 50 μM)?
The Cytotoxicity was “not cytotoxic”.

What about the “Decrease of cell viability” value (CHO cells; 50 μM, 24 hours) of the same compound?
The value was “about 50%”.

What about the Apoptotic signaling (CHO cells; up to 50 μM) of the same compound?
Its Apoptotic signaling is “does not trigger apoptotic signaling”.

And the LNCaP cell viability (LNCaP cells; 48 hrs)?
Its LNCaP cell viability is “decrease in cell viability”.

What about the c-Myc stability (LNCaP cells; LNCaP cells, 6 and 48 hours) of the same compound?
The c-Myc stability was “decreases c-Myc stability”.

And the IC50 ([2]; 40 μM UDP-GlcNAc, 125 μM CKII3K peptide, read-out: IC50 against ncOGT, coupled enzyme assay)?
The IC50 was 2.7 µM.

What about the “Mode of inhibition with respect to UDP-GlcNAc” value ([2]; various UDP-GlcNAc concentrations) of the same compound?
Its value is “did not act competitively”.

What about the Aqueous solubility (Aqueous solubility) of the same compound?
Its Aqueous solubility is “limited aqueous solubility”.
